Tests used:
[1] = tested on: rats; test: FCA (Freunds Complete Adjuvant) model of inflammatory hypersensitivity to pain, weight bearing; format: in vivo, rat
Method: • Naïve weight bearing readings were taken. The hypersensitivity to pain was measured using the Rat incapacitance tester (Linton instruments). This instrument is serviced once a year and should be regularly calibrated • All rats then received an intraplantar injection of 100 ul of FCA (Freund's complete adjuvant) into the left hind paw. The FCA was sonicated for 15 minutes prior to use. • Approximately 23 hrs after administration of the FCA, pre-dose weight bearing readings were taken. All animals were then ranked and randomised for dosing according to their FCA window (predose difference in grams−naïve difference in grams). […] Celebrex 10 mg/kg p.o. (positive control) as appropriate according to ranking and randomisation. • Animals were assessed in the weight bearing apparatus 1 hour post dose. • The study was blind and randomised by FCA window using the Latin square method. • % reversals were calculated by using the naïve, pre-dose and post dose values as follows: % Reversal=[(Pre-dose−Post-dose)/(Pre-dose−Naïve)]×100 • Graphs and ED50 were calculated where appropriate using Prism4. • Statistical analysis was carried out using ANOVA followed by calculating the least square means using the statistical package Statistica 6.1 • From the dose response curves the ED20 was determined for the combination study Results • Naïve weight bearing readings were taken. The hypersensitivity to pain was measured using the Rat incapacitance tester (Linton instruments). This instrument is serviced once a year and should be regularly calibrated • All rats then received an intraplantar injection of 100 ul of FCA (Freund's complete adjuvant) into the left hind paw. The FCA was sonicated for 15 minutes prior to use. • Approximately 23 hrs after administration of the FCA, pre-dose weight bearing readings were taken. All animals were then ranked and randomised for dosing according to their FCA window (predose difference in grams−naïve difference in grams). […] See table 5 for details of the groups • Animals were assessed in the weight bearing apparatus 1 hour post dose. • The study was blind and randomised by FCA window using the Latin square method. • % reversals were calculated by using the naïve, pre-dose and post dose values as follows: % Reversal=[(Pre-dose−Post-dose)/(Pre-dose−Naïve)]×100 • Statistical analysis was carried out using ANOVA followed by calculating the least square means using the statistical package Statistica 6.1 • ED50 and ED20 values and graphs were calculated using prism5 • Naïve weight bearing readings were taken. The hypersensitivity to pain was measured using the Rat incapacitance tester (Linton instruments). This instrument is serviced once a year and should be regularly calibrated • All rats then received an intraplantar injection of 100 ul of FCA (Freund's complete adjuvant) into the left hind paw. The FCA was sonicated for 15 minutes prior to use. • Approximately 23 hrs after administration of the FCA, pre-dose weight bearing readings were taken. All animals were then ranked and randomised for dosing according to their FCA window (predose difference in grams−naïve difference in grams). […] Graphs and ED50 were calculated where appropriate using Prism5 • Statistical analysis was carried out using ANOVA followed by calculating the least square means using the statistical package Statistica 6.1 Results

[2] = tested on: Male CD rats; test: Rat MEST model (maximal electroshock seizure threshold); format: in vivo
Method: This work was conducted in compliance with the Home Office Guidance on the operation of the Animals (Scientific Procedures) Act 1986 and GlaxoSmithKline ethical standards. Male CD rats (100-145 g) were supplied by Charles River, UK. Animals were group housed (6 animal per cage) with free access to food (Standard rodent chow; Harlan, UK) and water under a 12 h light/dark cycle (lights on at 0700 h). A period of at least one week between arrival at GSK and the study was allowed in all cases.
Animals were administered a test compound at the appropriate dose, route and pre-treatment time and returned to their home cage. Testing occurred in a separate room from that used for housing. Testing involved determining the threshold for tonic hindlimb extensor seizures using a Hugo Sachs Electronik stimulator which delivers a constant current of 0.3 second duration, 50 Hz, sinewave form, fully adjustable between 1 and 300 mA. Stimuli were delivered via corneal electrodes (Stean T O, Atkins A R, Heidbreder C A, Quinn L P, Trail B K, Upton N. (2005) Br J. Pharmacol. 144(5):628-35). Seizure threshold was determined using the ‘up and down’ method of Kimball et al. (1957)(Kimball A W, Burnett W T Jr, Doherty D G. (1957) Radiat Res. 7(1):1-12). The first animal tested in each group was stimulated with a current that might be expected to be close to the threshold for induction of a seizure. If a tonic seizure was not induced, then then next animal in the group received a stimulus 5 mA higher. If a tonic seizure was induced, then the next animal received a stimulus 5 mA lower. This is repeated for all animals within the control (vehicle) group. In the case of groups treated with a sodium channel blocker steps of 10 to 30 mA were used.
(§1) All doses were calculated as base. ENa9 and ENa13 were dosed via the subcutaneous (s.c.) route at 1 ml/kg in a 2% v/v DMSO/saline vehicle 30 minutes prior to test. ENa7 and ENa14 were dosed orally (p.o.) in a 1% w/v methylcellulose/water vehicle at 2 ml/kg, 60 minutes before test. Compound ENK6 was dosed with via the intraperitoneal (i.p.) route 60 minutes before the test or via the s.c. route 15 minutes before test. In both cases ENK6 was dissolved in saline.
Induction of seizure is measured as an all-or-nothing effect scored as either present (+) or absent (0) for each animal. The data for each treatment group were recorded as the number of +'s and 0's at each current level employed and this information was then used to calculate the CC50 value (current required for 50% of animals to show seizure behaviour)+standard error of the mean according to the method of Kimball et al. (1957). Drug effects were calculated as the % change in CC50. Significant differences between drug-treated animals and appropriate vehicle treated groups were assessed according to the methods of Litchfield and Wilcoxon (1949). The statistical significance of differences between sodium channel blocker alone or in combination with ENK6 was assessed using a Student's t test.

[3] = Blood and brain concentrations in satellite animals of the MEST studies; format: in vivo, rat; settings: 1 and 3 mg/kg s.c. with ENK6 30 mg/kg i.p.
Method: Satellite animals (n=3/group) received the same drugs or combinations of drugs as the test groups, and were culled at the appropriate time after dosing. Blood and brain samples were taken for analysis of the drug concentrations in these compartments.
as §1

[4] = ED20 dose alone (ENa7 0.1 mg/kg p.o.; ENK6 0.08 mg/kg s.c.)
[5] = FIG. 3, group marked by vertical arrow, ENK6 10 mg/kg sc 15 min ptt, Ena7 1 & 3 mg/kg po 60 min ptt
[6] = 3 mg/kg s.c., 30 min before test, alone

In the case of Nc1nnc(-c2cccc(Cl)c2Cl)c(N)n1 [ENa7, 3,5-diamino-6-(2,3-dichlorophenyl)-1,2,4-triazine, reference compound], the “effect on FCA induced hypersensitivity” value ([1]; 0.1-3.0 mg/kg, alone, 1 hour post dose) is reported as “dose related reversal of the FCA induced hypersensitivity”, the “effect on FCA induced hypersensitivity” value [1, 4] is reported as “no significant effect on the FCA induced hypersensitivity” and the “effect on seizure threshold” value ([2]; 1 mg/kg p.o., 60 min before test, alone) is reported as “little or no increase in seizure threshold”. The CC50 value [2, 5] was “greater than 180 mA” and the “increase in CC50” value [2, 5] was > 780%.
In the case of Nc1nc(N)c(-c2cccc(Cl)c2Cl)c(CF)n1 [ENa15, R(−)-2,4-diamino-5-(2,3-dichlorophenyl)-6-fluoromethyl pyrimidine methanesulphonate], the “effect on seizure threshold” value ([2]; 0.3 mg/kg p.o., 60 min before test, alone) is reported as “no increase in seizure threshold” and the “increase in CC50(mA)” value ([2]; 1 mg/kg p.o. in the presence of ENK6 30 mg/kg s.c.) is reported as 51%.
For CN1CC[C@]2(CC[C@H](c3ccc(OCc4ccccc4F)cc3)N2)C1=O.Cl [ENa13, (2R,5R)-2-(4-{[(2-Fluorophenyl)methyl]oxy}phenyl)-7-methyl-1,7-diazaspiro[4,4]nonan-6-one hydrochloride], the “blood or brain concentration in the presence of ENK6 versus alone” value [3] was “No increase” and the “effect on seizure threshold” value [2, 6] was “robust and significant increase in seizure threshold”.
For Cl.NC(=O)[C@@H]1CC[C@H](c2ccc(OCc3ccccc3F)cc2)N1 [ENa9, (5R)-5-(4-{[(2-fluorophenyl)methyl]oxy}phenyl)-L-prolinamide hydrochloride], the “blood or brain concentration in the presence of ENK6 versus alone” value [3] was “No increase” and the “effect on seizure threshold” value [2, 6] was “small, but significant increase in seizure threshold”.
In the case of COc1ccc(-n2nnnc2C(F)(F)F)cc1CN[C@H]1CCCN[C@H]1c1ccccc1.Cl.Cl [ENK6, [2-Methoxy-5-(5-trifluoromethyl-tetrazol-1-yl)-benzyl]-([2S,3S]-2-phenyl-piperidin-3-yl)-amine dihydrochloride], the “effect on FCA induced hypersensitivity” value ([1]; 0.1-3.0 mg/kg, alone, 1 hour post dose, dihydrochloride) is reported as “dose related reversal of the FCA induced hypersensitivity”, the “effect on FCA induced hypersensitivity” value [1, 4] is reported as “no significant effect on the FCA induced hypersensitivity” and the “ED20, reversal of FCA induced hypersensitivity” value ([1]; s.c., alone (summary of results)) is reported as “approx 0.08 mg/kg”. The “effect on seizure threshold” value ([2]; 10 mg/kg s.c., 15 min before test, alone (first experiment)) was “no effect on seizure threshold”, the “effect on seizure threshold” value ([2]; 30 mg/kg i.p., 60 min before test, alone) was “no effect on seizure threshold” and the “effect on seizure threshold” value ([2]; 30 mg/kg s.c., 15 min before test, alone) was “no effect on seizure threshold”.
